The subject of assay [1] is purified MHC molecules (28 common HLA DP, DQ and DR alleles). As to the kind of experiment: HLA class II competition binding assay (inhibition of radiolabeled ligand binding). Further details: species or system human. To be noted: alleles bound at <1000 nM threshold. As to the method: Peptides predicted to bind most (≥75%) of the alleles, were experimentally verified in HLA-II binding assays^31. For each peptide, the number of alleles that bound at a <1000 nM threshold level was tabulated. Top 20 promiscuous binders (bind >50% of reference alleles) were selected for further study (FIG. 9A, Table 2).
Next, the capacity of these peptides to bind 28 common HLA alleles (27 from the reference set plus DPB1*03:01) was determined experimentally using classical competition assays based on the inhibition of binding of high affinity radiolabeled ligands to purified MHC molecules^3. Under the conditions utilized, where [radiolabeled peptide] is <[MHC], and [MHC]<[inhibitor peptide], the measured IC50 values, defined as the concentrations of inhibitor peptide that inhibits the binding of the radiolabeled ligand by 50%, are reasonable estimates of true Kd values.

The test system of assay [2] is PBMCs. The experiment in a line: IFNγ ELISpot after 14-day in vitro expansion and re-stimulation. The assay is classed as cell-based, human.
Procedure: To do this, the inventors used the optimized IFNγ ELISpot assay (FIG. 1A) because Th1 cytokine response to APOB peptides is most robust (FIG. 9D) and easily detectable in high-throughput screens. PBMCs from HLA-typed donors (demographics and HLA-II alleles in Tables 5, 6) were incubated with the APOB20 pool for 14 days with intermittent IL-2 feeding (schematic in FIG. 11A). […] Restimulation with the APOB20 pool and with PHA-L served as positive controls, and unstimulated cells were negative controls. For each donor, APOB peptide-specific restimulation conditions were run in triplicate wells and the average number of spot-forming cells (SFCs) per 10^6 PBMCs was calculated. To determine responder frequencies, a positive response was defined based on established criteria set for detection of responses to other autoantigenic epitopes^4. (1) ≥100 spot-forming cells per 10^6 PBMCs; (2) stimulation index ≥2 (3) p≤0.01 by Student's t-test, mean response in stimulated vs unstimulated replicate wells.
Expansion of antigen-specific T cells and Enzyme-linked immunospot (ELISpot) assay. For in vitro expansion, PBMCs were plated at a density of 2×10^6 cells/ml in 24-well plates and were cultured in the presence of APOB20 and CEFX-II peptide pools. […] Wells were imaged and spot-forming cells (SFCs) were quantified using the Zeiss KS or AID (Autoimmun Diagnostika) ELISpot readers. […]
Assay [3] deals with 28 common HLA alleles (27 from the reference set plus DPB1*03:01), purified MHC molecules. The experiment in a line: competition assay, inhibition of radiolabeled ligand binding to purified HLA class II; bound = IC50 <1000 nM.

HFSNVFRSVMAPFTM [Peptide 7]: the “No. of HLA-II alleles bound” value in assay [1] is given as 22.

On to HVKHFVINLIGDFEV [Peptide 10], for which the “No. of HLA-II alleles bound” value in assay [1] is 21.

Turning to IKHIYAISSAALSAS [Peptide 6], the “No. of HLA-II alleles bound” value in assay [1] came out at 20. On the same count and under the same terms, the same measure for ILFSYFQDLVITLPF [Peptide 17]: 17. Take KFTYLINYIQDEINT [Peptide 18]: the “No. of HLA-II alleles bound” value in assay [1] is reported as 19. Still for that read-out and setting: in the case of KIVSLIKNLLVALKD [Peptide 20] it was 20; in that of LEVLNFDFQANAQLS [Peptide 12], 18; in that of LIINWLQEALSSASL [Peptide 11], 17. The same measure, in the same setting: in the case of LSQLQTYMIQFDQYI [Peptide 9] it was 17; in that of QIHQYIMALREEYFD [Peptide 19], 25. Consider QLYSKFLLKAEPLAF [Peptide 8], for which the “No. of HLA-II alleles bound” value in assay [1] is 27. With RGLKLATALSLSNKF [Peptide 15], in assay [1], the “No. of HLA-II alleles bound” value worked out at 23. As to SLFFSAQPFEITAST [Peptide 13], in assay [1], the “No. of HLA-II alleles bound” value came out at 23. On to TLTAFGFASADLIEI [Peptide 2], for which the “No. of HLA-II alleles bound” value in assay [1] was found to be 21. For the same molecule, the “response with pan-HLA-DR blocking antibody” value in assay [2] (donor 1, HLA-DR alleles with strong binding affinities for the peptide) was “inhibited responses”. In assay [2] (donor 2, DQ and DP binder alleles and DR non-binder alleles), the “immunogenicity under HLA-DR blockade” value is recorded as “remained unaffected”.

On to VEFVTNMGIIIPDFA [Peptide 4], for which, in assay [1], the “No. of HLA-II alleles bound” value came to 18. In the case of VGSKLIVAMSSWLQK [Peptide 5], in assay [1], the “No. of HLA-II alleles bound” value was 21.

Regarding YKKLRTSSFALNLPT [Peptide 16], the “No. of HLA-II alleles bound” value in assay [1] is 21.

As to QIHQYIMALREEYFD [APOB peptide 19 (…)], the No. of HLA-II alleles bound in assay [3] came to 25 alleles. Regarding DKRLAAYLMLMRSPS [APOB peptide 1 (…)], the No. of HLA-II alleles bound in assay [3] was 23 alleles. Still for that read-out and setting: in the case of IKHIYAISSAALSAS [APOB peptide 6 (…)] it was 20 alleles; in that of LIINWLQEALSSASL [APOB peptide 11 (…)], 17 alleles.

Turning to VEFVTNMGIIIPDFA [APOB peptide 4 (…)], the No. of HLA-II alleles bound in assay [3] was found to be 18 alleles.

Consider HFSNVFRSVMAPFTM [APOB peptide 7 (…)], for which the No. of HLA-II alleles bound in assay [3] stood at 22 alleles. Still for that read-out and setting: in the case of KFTYLINYIQDEINT [APOB peptide 18 (…)] it was 19 alleles; in that of FLHYIFMENAFELPT [APOB peptide 3 (…)], 24 alleles. Same read-out and setting: the same measure for LSQLQTYMIQFDQYI [APOB peptide 9 (…)]: 17 alleles; for KIVSLIKNLLVALKD [APOB peptide 20 (…)]: 20 alleles; for QLYSKFLLKAEPLAF [APOB peptide 8 (…)]: 27 alleles. Still for that read-out and setting: in the case of HVKHFVINLIGDFEV [APOB peptide 10 (…)] it was 21 alleles.

Regarding YKKLRTSSFALNLPT [APOB peptide 16 (…)], in assay [3], the No. of HLA-II alleles bound came out at 21 alleles. Turning to TLTAFGFASADLIEI [APOB peptide 2 (…)], in assay [3], the No. of HLA-II alleles bound was 21 alleles.

Regarding SLFFSAQPFEITAST [APOB peptide 13 (…)], the No. of HLA-II alleles bound in assay [3] was determined as 23 alleles.

For the molecule VGSKLIVAMSSWLQK [APOB peptide 5 (…)], the No. of HLA-II alleles bound in assay [3] was 21 alleles.

Regarding ILFSYFQDLVITLPF [APOB peptide 17 (…)], the No. of HLA-II alleles bound in assay [3] is 17 alleles. With LEVLNFDFQANAQLS [APOB peptide 12 (…)], the No. of HLA-II alleles bound in assay [3] was 18 alleles. The same measure, in the same setting: the same measure for GKIDFLNNYALFLSP [APOB peptide 14 (…)]: 23 alleles.

Source of the values: US20260000710A1, “Novel Treatments for Cardiovascular Related Disease” (priority 2022, published 2026).
